Data taken from PubChem BioAssay AID1963831 (Molecular Pharmacology Branch, DTP, NCI, 2024).

System: 889142-216-R-J1-PDC complex spheroid viability
Test: Anticancer human tumor 889142-216-R-J1-PDC patient-derived bladder carcinoma cell line growth inhibition [POLQ]
Conditions: for IC50: curve of first compound; for viability, T/C: stronger effect = lower value
Procedure, shortened: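 Growth inhibition in 3D: complex spheroids (tumor PDC, HUVEC, MSC) treated with POLQ inhibitor combinations; where Cmax unknown, highest tested concentration 10 microM, except SN-38 at 1 microM.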

[1] = second compound 0.0316 µM, first compound 0.00316 µM
[2] = second compound 0.0316 µM, first compound 0.01 µM
[3] = second compound 0.0316 µM, first compound 0.0316 µM
[4] = second compound 0.0316 µM, first compound 0.1 µM
[5] = second compound 0.0316 µM, first compound 0.316 µM
[6] = second compound 0.0316 µM, first compound 1 µM
[7] = second compound 0.1 µM, first compound 0.00316 µM
[8] = second compound 0.1 µM, first compound 0.01 µM
[9] = second compound 0.1 µM, first compound 0.0316 µM
[10] = second compound 0.1 µM, first compound 0.1 µM
[11] = second compound 0.1 µM, first compound 0.316 µM
[12] = second compound 0.1 µM, first compound 1 µM
[13] = second compound 0.316 µM, first compound 0.00316 µM
[14] = second compound 0.316 µM, first compound 0.01 µM
[15] = second compound 0.316 µM, first compound 0.0316 µM
[16] = second compound 0.316 µM, first compound 0.1 µM
[17] = second compound 0.316 µM, first compound 0.316 µM
[18] = second compound 0.316 µM, first compound 1 µM
[19] = second compound 1 µM, first compound 0.00316 µM
[20] = second compound 1 µM, first compound 0.01 µM
[21] = second compound 1 µM, first compound 0.0316 µM
[22] = second compound 1 µM, first compound 0.1 µM
[23] = second compound 1 µM, first compound 0.316 µM
[24] = second compound 1 µM, first compound 1 µM
[25] = second compound 3.16 µM, first compound 0.00316 µM
[26] = second compound 3.16 µM, first compound 0.01 µM
[27] = second compound 3.16 µM, first compound 0.0316 µM
[28] = second compound 3.16 µM, first compound 0.1 µM
[29] = second compound 3.16 µM, first compound 0.316 µM
[30] = second compound 3.16 µM, first compound 1 µM
[31] = second compound 10 µM, first compound 0.00316 µM
[32] = second compound 10 µM, first compound 0.01 µM
[33] = second compound 10 µM, first compound 0.0316 µM
[34] = second compound 10 µM, first compound 0.1 µM
[35] = second compound 10 µM, first compound 0.316 µM
[36] = second compound 10 µM, first compound 1 µM
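Also: spheroids exposed to compounds for seven days.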
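For viability, T/C in this document: 100% = DMSO vehicle control viability.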

What does the source list for C=CCn1c(=O)c2cnc(Nc3ccc(N4CCN(C)CC4)cc3)nc2n1-c1cccc(C(C)(C)O)n1 + COC1C(OC(N)=O)C(O)C(Oc2ccc3c(O)c(NC(=O)c4ccc(O)c(CC=C(C)C)c4)c(=O)oc3c2C)OC1(C)C?
IC50 (second compound 0.0316 µM): > 1000 nM; IC50 (second compound 0.1 µM): > 1000 nM; IC50 (second compound 0.316 µM): > 1000 nM; IC50 (second compound 1 µM): > 1000 nM; IC50 (second compound 3.16 µM): > 1000 nM; IC50 (second compound 10 µM): > 1000 nM; viability, T/C [1]: 97.1%; viability, T/C [2]: 152%; viability, T/C [3]: 86.6%; viability, T/C [4]: 83.1%; viability, T/C [5]: 66.1%; viability, T/C [6]: 52%; viability, T/C [7]: 98.3%; viability, T/C [8]: 111%; viability, T/C [9]: 108%; viability, T/C [10]: 81.2%; viability, T/C [11]: 60.9%; viability, T/C [12]: 57.5%; viability, T/C [13]: 100%; viability, T/C [14]: 125%; viability, T/C [15]: 103%; viability, T/C [16]: 86.4%; viability, T/C [17]: 63.6%; viability, T/C [18]: 54.7%; viability, T/C [19]: 112%; viability, T/C [20]: 110%; viability, T/C [21]: 113%; viability, T/C [22]: 89.5%; viability, T/C [23]: 68.6%; viability, T/C [24]: 57%; viability, T/C [25]: 90.2%; viability, T/C [26]: 99.6%; viability, T/C [27]: 85.4%; viability, T/C [28]: 108%; viability, T/C [29]: 64.5%; viability, T/C [30]: 50.2%; viability, T/C [31]: 127%; viability, T/C [32]: 116%; viability, T/C [33]: 97.8%; viability, T/C [34]: 85.9%; viability, T/C [35]: 62.5%; viability, T/C [36]: 51.8%

With CCCS(=O)(=O)Nc1ccc(F)c(C(=O)c2c[nH]c3ncc(-c4ccc(Cl)cc4)cc23)c1F + COC1C(OC(N)=O)C(O)C(Oc2ccc3c(O)c(NC(=O)c4ccc(O)c(CC=C(C)C)c4)c(=O)oc3c2C)OC1(C)C as the molecule, how does the IC50 (second compound 0.0316 µM) read?
The IC50 was 5530 nM.

What about the IC50 (second compound 0.1 µM) of the same molecule?
Its IC50 is 4990 nM.

What about the IC50 (second compound 0.316 µM) of the same molecule?
The IC50 was 7020 nM.

What about the IC50 (second compound 1 µM) of the same molecule?
Its IC50 is 6230 nM.

And the IC50 (second compound 3.16 µM)?
The IC50 was 5260 nM.

What about the IC50 (second compound 10 µM) of the same molecule?
Its IC50 is 6110 nM.

And the viability, T/C [3]?
Its viability, T/C is 108%.

What about the viability, T/C [4] of the same molecule?
Its viability, T/C is 108%.

What about the viability, T/C [5] of the same molecule?
The viability, T/C was 93.5%.

And the viability, T/C [6]?
The viability, T/C was 109%.

And the viability, T/C (second compound 0.0316 µM, first compound 3.16 µM)?
Its viability, T/C is 62.2%.

What about the viability, T/C (second compound 0.0316 µM, first compound 10 µM) of the same molecule?
The viability, T/C was 36.9%.

And the viability, T/C [9]?
The viability, T/C was 126%.

What about the viability, T/C [10] of the same molecule?
Its viability, T/C is 110%.

What about the viability, T/C [11] of the same molecule?
Its viability, T/C is 98.5%.

And the viability, T/C [12]?
The viability, T/C was 91.9%.

And the viability, T/C (second compound 0.1 µM, first compound 3.16 µM)?
Its viability, T/C is 55%.

And the viability, T/C (second compound 0.1 µM, first compound 10 µM)?
Its viability, T/C is 34.9%.

What about the viability, T/C [15] of the same molecule?
Its viability, T/C is 126%.

And the viability, T/C [16]?
The viability, T/C was 98.3%.

What about the viability, T/C [17] of the same molecule?
Its viability, T/C is 92.8%.

What about the viability, T/C [18] of the same molecule?
The viability, T/C was 99.5%.

And the viability, T/C (second compound 0.316 µM, first compound 3.16 µM)?
Its viability, T/C is 69.7%.

And the viability, T/C (second compound 0.316 µM, first compound 10 µM)?
Its viability, T/C is 39.6%.

And the viability, T/C [21]?
Its viability, T/C is 101%.

What about the viability, T/C [22] of the same molecule?
The viability, T/C was 109%.

What about the viability, T/C [23] of the same molecule?
Its viability, T/C is 104%.

What about the viability, T/C [24] of the same molecule?
The viability, T/C was 93.9%.

And the viability, T/C (second compound 1 µM, first compound 3.16 µM)?
The viability, T/C was 64.5%.

And the viability, T/C (second compound 1 µM, first compound 10 µM)?
The viability, T/C was 40%.

What about the viability, T/C [27] of the same molecule?
The viability, T/C was 116%.

And the viability, T/C [28]?
Its viability, T/C is 115%.

What about the viability, T/C [29] of the same molecule?
The viability, T/C was 98%.

And the viability, T/C [30]?
Its viability, T/C is 80.4%.

And the viability, T/C (second compound 3.16 µM, first compound 3.16 µM)?
The viability, T/C was 63.9%.

And the viability, T/C (second compound 3.16 µM, first compound 10 µM)?
Its viability, T/C is 34.6%.

What about the viability, T/C [33] of the same molecule?
The viability, T/C was 104%.

What about the viability, T/C [34] of the same molecule?
Its viability, T/C is 105%.

What about the viability, T/C [35] of the same molecule?
Its viability, T/C is 95.5%.

What about the viability, T/C [36] of the same molecule?
Its viability, T/C is 90%.

What about the viability, T/C (second compound 10 µM, first compound 3.16 µM) of the same molecule?
The viability, T/C was 68.2%.

And the viability, T/C (second compound 10 µM, first compound 10 µM)?
Its viability, T/C is 36.2%.

COc1cccc(OCCCN)c1-c1cc(Nc2cnc(C#N)cn2)n[nH]1 + COC1C(OC(N)=O)C(O)C(Oc2ccc3c(O)c(NC(=O)c4ccc(O)c(CC=C(C)C)c4)c(=O)oc3c2C)OC1(C)C was tested. Which IC50 (second compound 0.0316 µM) did it give?
The IC50 was 20.4 nM.

What about the IC50 (second compound 0.1 µM) of the same molecule?
Its IC50 is 19.8 nM.

And the IC50 (second compound 0.316 µM)?
Its IC50 is 29.8 nM.

And the IC50 (second compound 1 µM)?
Its IC50 is 17.5 nM.

And the IC50 (second compound 3.16 µM)?
Its IC50 is 26.4 nM.

What about the IC50 (second compound 10 µM) of the same molecule?
The IC50 was 20 nM.

And the viability, T/C [1]?
The viability, T/C was 90.8%.

And the viability, T/C [2]?
Its viability, T/C is 55.7%.

And the viability, T/C [3]?
The viability, T/C was 51.2%.

What about the viability, T/C [4] of the same molecule?
The viability, T/C was 33.5%.

What about the viability, T/C [5] of the same molecule?
Its viability, T/C is 34.4%.

What about the viability, T/C [6] of the same molecule?
The viability, T/C was 36.2%.

What about the viability, T/C [7] of the same molecule?
Its viability, T/C is 90%.

And the viability, T/C [8]?
The viability, T/C was 63.5%.

And the viability, T/C [9]?
The viability, T/C was 41.1%.

And the viability, T/C [10]?
The viability, T/C was 31.6%.

And the viability, T/C [11]?
Its viability, T/C is 31.5%.

What about the viability, T/C [12] of the same molecule?
The viability, T/C was 30.9%.

What about the viability, T/C [13] of the same molecule?
The viability, T/C was 73.2%.

What about the viability, T/C [14] of the same molecule?
The viability, T/C was 66.6%.

And the viability, T/C [15]?
Its viability, T/C is 47.8%.

And the viability, T/C [16]?
Its viability, T/C is 38.8%.

What about the viability, T/C [17] of the same molecule?
The viability, T/C was 33.8%.

What about the viability, T/C [18] of the same molecule?
Its viability, T/C is 31.7%.

And the viability, T/C [19]?
Its viability, T/C is 87%.

And the viability, T/C [20]?
Its viability, T/C is 57.5%.

What about the viability, T/C [21] of the same molecule?
Its viability, T/C is 40.9%.

And the viability, T/C [22]?
Its viability, T/C is 36.7%.

And the viability, T/C [23]?
The viability, T/C was 35%.

And the viability, T/C [24]?
The viability, T/C was 30%.

And the viability, T/C [25]?
Its viability, T/C is 78.3%.

And the viability, T/C [26]?
The viability, T/C was 61.5%.

What about the viability, T/C [27] of the same molecule?
The viability, T/C was 48%.

And the viability, T/C [28]?
Its viability, T/C is 38.2%.

And the viability, T/C [29]?
Its viability, T/C is 31.4%.

What about the viability, T/C [30] of the same molecule?
The viability, T/C was 28.6%.

And the viability, T/C [31]?
Its viability, T/C is 81.7%.

What about the viability, T/C [32] of the same molecule?
Its viability, T/C is 58.5%.

And the viability, T/C [33]?
Its viability, T/C is 45.6%.

What about the viability, T/C [34] of the same molecule?
The viability, T/C was 33.8%.

What about the viability, T/C [35] of the same molecule?
The viability, T/C was 34.4%.

And the viability, T/C [36]?
The viability, T/C was 30.7%.
